For eight molecules, IC50 results are on record in ChEMBL document CHEMBL1151518, “Synthesis, evaluation and Tc-99m complexation of a hydrazinonicotinyl conjugate of a GP IIb/IIIa antagonist cyclic peptide for the detection of deep vein thrombosis” (Bioorg Med Chem Lett, 1997).

Some results are limits rather than exact numbers.

The target of the experiment is Integrin alpha-IIb/beta-3 (Canis lupus familiaris). The experiment in a line: Inhibition of 125I-fibrinogen binding to alpha IIb beta-3 integrin as inhibition of activated platelets.
As to `CN1C(=O)[C@@H](CCCCNC(=O)c2ccc(NNC(=O)OC(C)(C)C)nc2)NC(=O)c2cccc(c2)CNC(=O)[C@H](CC(=O)O)NC(=O)CNC(=O)[C@@H]1CCCN=C(N)N`, the IC50 turned out to be 16 nM. `CC(C)[C@H]1NC(=O)c2cc(cc(NC(=O)CCCCCNC(=O)c3ccc(NN)nc3)c2)CNC(=O)[C@H](CC(=O)O)NC(=O)CNC(=O)[C@H](CCCN=C(N)N)N(C)C1=O` showed a half-maximal inhibitory concentration (IC50) of 8 nM. With `CC(C)[C@H]1NC(=O)c2cccc(c2)CNC(=O)[C@H](CC(=O)O)NC(=O)CNC(=O)[C@H](CCCN=C(N)N)N(C)C1=O` the figure was 6 nM; with `CCOC(C)SCC(=O)NCC(CCC(=O)NCCCCCC(=O)Nc1cc2cc(c1)C(=O)N[C@H](C(C)C)C(=O)N(C)[C@@H](CCCN=C(N)N)C(=O)NCC(=O)N[C@@H](CC(=O)O)C(=O)NC2)NC(=O)CSC(C)OCC` (stereo partly drawn), 13 nM; with `CC(C)[C@H]1NC(=O)c2cc(cc(NC(=O)CCCCCNC(=O)c3ccc(NNC(=O)OC(C)(C)C)nc3)c2)CNC(=O)[C@H](CC(=O)O)NC(=O)CNC(=O)[C@H](CCCN=C(N)N)N(C)C1=O`, 9 nM.

Turning to `CCOC(C)SCC(=O)NCC(CCC(=O)NCCCC[C@H]1NC(=O)c2cccc(c2)CNC(=O)[C@H](CC(=O)O)NC(=O)CNC(=O)[C@H](CCCN=C(N)N)N(C)C1=O)NC(=O)CSC(C)OCC` (stereo partly drawn), the IC50 amounted to 11 nM.

Take `CC(C)[C@H]1NC(=O)c2cc(cc(NC(=O)CCCCCNC(=O)c3ccc(CN(CCSC(c4ccccc4)(c4ccccc4)c4ccccc4)CC(=O)NCCSC(c4ccccc4)(c4ccccc4)c4ccccc4)cc3)c2)CNC(=O)[C@H](CC(=O)O)NC(=O)CNC(=O)[C@H](CCCN=C(N)N)N(C)C1=O`: the half-inhibitory concentration (IC50) was greater than 1000 nM. On to `CC(C)[C@H]1NC(=O)c2cc(cc(NC(=O)CCCCCN)c2)CNC(=O)[C@H](CC(=O)O)NC(=O)CNC(=O)[C@H](CCCN=C(N)N)N(C)C1=O`, for which the half-inhibitory concentration (IC50) worked out at 5 nM.
